In one test the target is T1, Gli1 (Homo sapiens, UniProt P08151).
T1 construct: expressed in transfected cells; host or cells: HEK293
T1 sequence (P08151 1-1106): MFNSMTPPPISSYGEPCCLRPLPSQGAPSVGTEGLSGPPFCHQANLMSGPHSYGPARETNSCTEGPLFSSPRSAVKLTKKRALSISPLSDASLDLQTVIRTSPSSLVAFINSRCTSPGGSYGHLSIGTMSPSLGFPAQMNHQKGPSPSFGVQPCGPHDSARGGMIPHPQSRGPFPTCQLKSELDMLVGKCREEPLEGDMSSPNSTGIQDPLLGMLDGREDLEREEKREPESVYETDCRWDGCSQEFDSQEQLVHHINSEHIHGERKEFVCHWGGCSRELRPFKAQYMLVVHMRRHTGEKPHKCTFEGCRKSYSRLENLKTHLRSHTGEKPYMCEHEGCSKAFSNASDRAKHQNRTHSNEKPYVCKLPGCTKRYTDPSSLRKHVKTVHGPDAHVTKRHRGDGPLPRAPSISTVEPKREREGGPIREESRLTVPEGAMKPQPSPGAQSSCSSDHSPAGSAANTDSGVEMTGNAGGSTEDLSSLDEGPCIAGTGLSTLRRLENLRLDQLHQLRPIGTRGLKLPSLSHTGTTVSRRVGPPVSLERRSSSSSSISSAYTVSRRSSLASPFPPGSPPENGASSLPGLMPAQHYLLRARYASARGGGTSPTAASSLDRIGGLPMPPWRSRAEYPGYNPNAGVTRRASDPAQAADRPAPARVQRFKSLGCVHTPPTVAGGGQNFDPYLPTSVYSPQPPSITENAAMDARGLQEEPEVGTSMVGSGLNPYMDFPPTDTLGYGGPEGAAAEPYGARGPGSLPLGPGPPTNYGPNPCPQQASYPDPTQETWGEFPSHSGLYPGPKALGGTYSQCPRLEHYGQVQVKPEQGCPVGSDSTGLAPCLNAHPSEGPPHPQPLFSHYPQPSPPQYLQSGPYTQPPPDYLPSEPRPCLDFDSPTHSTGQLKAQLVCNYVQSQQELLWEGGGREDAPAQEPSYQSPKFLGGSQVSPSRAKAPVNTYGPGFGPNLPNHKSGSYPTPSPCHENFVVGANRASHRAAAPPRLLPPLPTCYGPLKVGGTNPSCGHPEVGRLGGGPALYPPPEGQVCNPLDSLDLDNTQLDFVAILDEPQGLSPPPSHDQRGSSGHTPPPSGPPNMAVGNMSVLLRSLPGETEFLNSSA
As to the kind of experiment: Gli1-mediated transcription luciferase assay in HEK293 cells transiently expressing Gli1. It is filed as cell-based. The conditions noted are these: 24 h. As for the experimental part: FIG. 7. Inhibition of Gli1-induced transcription in transfected HEK293 cells. HEK293 cells were transfected with 12×GliBS-Luc and pRL-TK Renilla (normalization control) plus control (empty vector) or Gli1 vector and treated with Glabrescione B or GANT61 (20 μM) or vehicle only (DMSO, dimethyl sulfoxide 0.5%—Gli1 bar in the graph) for 24 h and luciferase activity tested. Shown is the mean of three independent experiments. Error bars indicate SD.
Efficacy of Glabrescione B to directly target Gli1 protein, the final effector of Hh pathway, was also tested. […] GANT61, the only small-molecule described to inhibit Gli1 function (Lauth et al., PNAS 104: 8455-8460), was included as positive control.
To investigate the ability of Glabrescione B to block downstream Hh signaling by targeting Gli1 protein functions, the inventors performed a luciferase assay in HEK293 cells transiently expressing Gli1. The cells were seeded in 24-multiwell plates and the day after transfected with Gli1 expression vector together with the reporter plasmids 12×GliBS-Luc and pRL-TK Renilla reniformis (Kogerman P et al, 1999; Everett L et al, 1999). […] After 24 h of treatment cells were lysed and analyzed by using the Dual Luciferase kit according to manufacturer's instructions (Dual-Luciferase® Reporter assay system; Promega, cat. # E1980). […]

Test [1] deals with Cancer stem cells (CSCs) isolated from murine Ptch+/− MB. As to the kind of experiment: Neurosphere forming assay (self-renewal of MB CSCs). The note with it: seven days of treatment; KAAD 1 μM as comparator. In kind it is cell-based. As for the experimental part: FIG. 14. […] After seven days of treatment the number of secondary neurospheres derived from a known number of single cells was counted. The self-renewal CSCs capability is expressed as percentage of neurospheres forming cells.
Hh activity preferentially associates to stemness features. For this reason, the Hh pathway antagonist Glabrescione B has also been investigated for its ability to modulate the behavior of MB cancer stem cells (CSCs).
Another experiment was carried out to determine the ability of Glabrescione B to suppress MB CSCs self-renewal. To this aim neurospheres derived from murine Ptch^+/− MB were treated with Glabrescione B at different concentrations and the percentage of neurospheres-forming cells was measured. For the neurosphere forming assay, cells were plated at clonal density (1-2 cells/mm2) into 96-well plates and cultured in selective medium as described above.
The results shown in FIG. 14 indicate that Glabrescione B has an inhibitory effect on self-renewal of cancer stem cells.

Each structure is given as a SMILES string.

As for `COc1cc(OC)c2c(=O)c(-c3ccc(OCC=C(C)C)c(OCC=C(C)C)c3)coc2c1` [Glabrescione B, 3-(3′,4′-bis(3-methylbut-2-enyloxy)phenyl)-5,7-dimethoxy-4H-chromen-4-one], on Gli1 (12×GliBS-Luc reporter), the half-inhibitory concentration (IC50) (commonly the concentration that gives 50% inhibition) was around 15 µM. In addition, at Gli1 (GANT61 20 μM as positive control), the “Gli1-induced transcription” value is listed as “capable of interfering with Gli1-induced transcription in a dose-dependent manner”. Also, the “MB CSCs self-renewal (percentage of neurospheres-forming cells)” value in test [1] is “suppressive effect on MB CSCs self-renewal”.

For the origin of these results see US10093642B2, “Multitarget hedgehog pathway inhibitors and uses thereof” (UNIVERSITA' DEGLI STUDI DI SIENA, priority 2013, dated 2018).
